According to US7361783B2, “(2S)-2-ethylphenylpropionic acid derivative” (Kyorin Pharmaceutical Co., Ltd., priority 2002, dated 2008):

Tested on: not given
Assay: not given
Settings: not given
In the case of `CC[C@@H](Cc1ccc(OC)c(C(=O)NCc2ccc(Oc3ccc(F)c(F)c3)cc2)c1)C(=O)O` [Example 9, (2S)-2-{[3-(N-{[4-(3,4-Difluorophenoxy)phenyl]methyl}carbamoyl)-4-methoxyphenyl]methyl}butyric acid], the melting point is reported as 118 to 120 °C. In the case of `CC[C@@H](Cc1ccc(OC)c(C(=O)NCc2ccc(Oc3cc(F)cc(F)c3)cc2)c1)C(=O)O` [Example 10, (2S)-2-{[3-(N-{[4-(3,5-Difluorophenoxy)phenyl]methyl}carbamoyl)-4-methoxyphenyl]methyl}butyric acid], the melting point is reported as 140 to 142 °C. `CC[C@@H](Cc1ccc(OC)c(C(=O)NCc2ccc(Oc3cccc(F)c3F)cc2)c1)C(=O)O` [Example 11, (2S)-2-{[3-(N-{[4-(2,3-Difluorophenoxy)phenyl]methyl}carbamoyl)-4-methoxyphenyl]methyl}butyric acid] showed a melting point of 93 to 95 °C. `CC[C@@H](Cc1ccc(OC)c(C(=O)NCc2ccc(Oc3cc(F)ccc3F)cc2)c1)C(=O)O` [Example 13, (2S)-2-{[3-(N-{[4-(2,5-Difluorophenoxy)phenyl]methyl}carbamoyl)-4-methoxyphenyl]methyl}butyric acid] showed a melting point of 116 to 118 °C. In the case of `CC[C@@H](Cc1ccc(OC)c(C(=O)NCc2ccc(Oc3c(F)cccc3F)cc2)c1)C(=O)O` [Example 14, (2S)-2-{[3-(N-{[4-(2,6-Difluorophenoxy)phenyl]methyl}carbamoyl)-4-methoxyphenyl]methyl}butyric acid], the melting point is reported as 106 to 108 °C. With `CC[C@@H](Cc1ccc(OC)c(C(=O)NCc2ccc(Oc3cc(C(F)(F)F)cc(C(F)(F)F)c3)cc2)c1)C(=O)O` [Example 15, (2S)-2-({3-[N-({4-[3,5-Bis(trifluoromethyl)phenoxy]phenyl}methyl)carbamoyl]-4-methoxyphenyl}methyl)butyric acid] the melting point was 125 to 127 °C. Molecule `CC[C@@H](Cc1ccc(OC)c(C(=O)NCc2ccc(Oc3cc(F)c(F)c(F)c3)cc2)c1)C(=O)O` [Example 17, (2S)-2-{[4-Methoxy-3-(N-{[4-(3,4,5-trifluorophenoxy)phenyl]methyl}carbamoyl)phenyl]methyl}butyric acid] has a melting point of 133 to 135 °C. For `CC[C@@H](Cc1ccc(OC)c(C(=O)NCc2ccc(Oc3cc(Cl)cc(Cl)c3)cc2)c1)C(=O)O` [Example 30, (2S)-2-{[4-Methoxy-3-(N-{[4-(3,5-dichlorophenoxy)phenyl]methyl}carbamoyl)phenyl]methyl}butyric Acid], the melting point was 145 to 148 °C. `CC[C@@H](Cc1ccc(OC)c(C(=O)NCc2ccc(Oc3ccc(Cl)c(Cl)c3)cc2)c1)C(=O)O` [Example 31, (2S)-2-{[4-Methoxy-3-(N-{[4-(3,4-dichlorophenoxy)phenyl]methyl}carbamoyl)phenyl]methyl}butyric acid] showed a melting point of 139 to 141 °C. `CC[C@@H](Cc1ccc(OC)c(C(=O)NCc2ccc(Oc3ccc(Cl)c(F)c3)cc2)c1)C(=O)O` [Example 32, (2S)-2-{[4-Methoxy-3-(N-{[4-(4-chloro-3-fluorophenoxy)phenyl]methyl}carbamoyl)phenyl]methyl}butyric acid] gave a melting point of 117 to 118 °C. In the case of `CC[C@@H](Cc1ccc(OC)c(C(=O)NCc2ccc(Oc3ccc(Br)c(Cl)c3)cc2)c1)C(=O)O` [Example 33, (2S)-2-{[4-Methoxy-3-(N-{[4-(4-bromo-3-chlorophenoxy)phenyl]methyl}carbamoyl)phenyl]methyl}butyric acid], the melting point is reported as 140 to 142 °C. Work on `CC[C@@H](Cc1ccc(OC)c(C(=O)NCc2ccc(Oc3ccc(Cl)c(C(F)(F)F)c3)cc2)c1)C(=O)O` [Example 34, (2S)-2-{[4-Methoxy-3-(N-{[4-(4-chloro-3-trifluoromethylphenoxy)phenyl]methyl}carbamoyl)phenyl]methyl}butyric acid] yielded a melting point of 141 to 142 °C. `CC[C@@H](Cc1ccc(OC)c(C(=O)NCc2ccc(Oc3cc(F)cc(C(F)(F)F)c3)cc2)c1)C(=O)O` [Example 35, (2S)-2-{[4-Methoxy-3-(N-{[4-(3-fluoro-5-trifluoromethylphenoxy)phenyl]methyl}carbamoyl)phenyl]methyl}butyric acid] showed a melting point of 125 to 128 °C.

Target: T1, human peroxisome proliferator-activated receptor (PPAR) α (Homo sapiens, UniProt Q07869)
T1 construct: expressed in transfected cells; host or cells: CHO cells
T1 sequence (Q07869 239-466 limits assumed): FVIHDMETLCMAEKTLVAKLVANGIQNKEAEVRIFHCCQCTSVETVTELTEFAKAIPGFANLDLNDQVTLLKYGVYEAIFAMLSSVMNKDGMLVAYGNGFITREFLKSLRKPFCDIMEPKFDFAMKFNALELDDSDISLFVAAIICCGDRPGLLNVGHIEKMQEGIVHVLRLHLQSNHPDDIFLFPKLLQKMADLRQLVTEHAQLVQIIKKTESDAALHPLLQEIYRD
Assay: Test of transcriptional activation on human PPARα (luciferase reporter, transfected CHO cells)
Format: cell-based
Settings: CHO cells cotransfected with yeast DNA-binding domain/human PPARα ligand-binding domain fusion and reporter plasmid; luciferase after 24 hours, corrected with Renilla internal standard
Experimental: Test of Transcriptional Activation on Human Peroxisome Proliferator-activated Receptor (PPAR) α
The CHO cells were cultured in a Dulbecco-modified Eagle's medium containing 10% delipid fetal calf serum (FCS/DMEM). To these cells were cotransfected receptor plasmid and its reporter plasmid (STRATAGENE Corp.) that express fused protein of DNA-binding domain being transcription factor of yeast with ligand-binding domain of human PPARα (Biochemistry, 1993, 32, 5598), and luciferase plasmid of Renilla (Promega Corp.) for internal standard, using lipofectamine. Thereafter, testing compound or (8S)-HETE being a control compound was added in the 10% SFCS/DMEM and both luciferase activities were measured after 24 hours, which were corrected with internal standard.
Work on `CCCCC/C=C\C/C=C\C=C\[C@@H](O)C/C=C\CCCC(=O)O` [(8S)-HETE, reference compound] yielded an EC50 of 1300 nM. Molecule `CC[C@@H](Cc1ccc(OC)c(C(=O)NCc2ccc(Oc3ccc(F)c(F)c3)cc2)c1)C(=O)O` [Example 9, (2S)-2-{[3-(N-{[4-(3,4-Difluorophenoxy)phenyl]methyl}carbamoyl)-4-methoxyphenyl]methyl}butyric acid] has an EC50 of 1.6 nM. In the case of `CC[C@@H](Cc1ccc(OC)c(C(=O)NCc2ccc(Oc3cc(F)cc(F)c3)cc2)c1)C(=O)O` [Example 10, (2S)-2-{[3-(N-{[4-(3,5-Difluorophenoxy)phenyl]methyl}carbamoyl)-4-methoxyphenyl]methyl}butyric acid], the EC50 is reported as 2.9 nM. `CC[C@@H](Cc1ccc(OC)c(C(=O)NCc2ccc(Oc3cc(F)c(F)c(F)c3)cc2)c1)C(=O)OC` [Example 16, Methyl (2S)-2-{[4-methoxy-3-(N-{[4-(3,4,5-trifluorophenoxy)phenyl]methyl}carbamoyl)phenyl]methyl}butyrate] showed an EC50 of 2.3 nM.

Tested on: male Beagle dog
Assay: Test of lipid-lowering effect in Beagle dog
Format: in vivo
Settings: serum; oral 0.03 mg/kg/day once a day for 14 days; before vs after administration
Experimental: Test of Lipid-lowering Effect
To a 27-month old male Beagle dog (HRA Beagle; Convance Research Products Inc.) was orally administered testing compound (0.3 mg/mL) in weak aqueous alkali solution sealed in a gelatin capsule once a day for continuous 14 days (0.03 mg/kg/day). For the feed during the period of administration, standard diet (Canine diet, PMI nutrition International Inc.) was used. Blood was collected before start of administration and after administration for 14 days, and total cholesterol value in serum and triglyceride value were measured by enzymic method [Cholesterol E-Test Wako (Wako Pure Chemical Industries,Ltd.), Liquitec TGII reagent 1, 2 (Rosch) and standard serum for measurement of lipid (Rosch) were used]. The decreasing rates of total cholesterol value and triglyceride value were calculated, respectively, according to following calculation formula. Decreasing rate (%)=(Measured value before administration−Measured value after administration)/Measured value before administration×100 [Result]
For `CC[C@@H](Cc1ccc(OC)c(C(=O)NCc2ccc(Oc3cc(F)cc(F)c3)cc2)c1)C(=O)O` [Example 10, (2S)-2-{[3-(N-{[4-(3,5-Difluorophenoxy)phenyl]methyl}carbamoyl)-4-methoxyphenyl]methyl}butyric acid], the “Decreasing rate Total cholesterol” value was 28% and the “Decreasing rate Triglyceride” value was 50%.
